What was measured:
[1] = biological target: T1, Human δ-opioid (DOP) (Homo sapiens, UniProt P41143); assay: Radioligand binding, human δ-opioid (DOP) membranes, FlashPlate, [3H]-Bremazocine; conditions: compound at 10 μM; [3H]-Bremazocine, FlashPlate
T1 construct: purchased Perkin Elmer Biosignal
Outline: (§1)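 Cloned human receptor membranes were coated onto FlashPlate wells and incubated with radioligand and compound (added from a 0.5 mM DMSO daughter plate) for 1 hour at room temperature in the dark. Scintillation counting gave percent inhibition, with DMSO defining total and reference ligand defining non-specific binding.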

[2] = biological target: T2, Human κ-Opioid (KOP) (Homo sapiens, UniProt P41145); assay: Radioligand binding, human κ-opioid (KOP) membranes, filtration, [3H]-Diprenorphine; conditions: compound at 10 μM; [3H]-Diprenorphine, filtration
T2 construct: purchased Perkin Elmer Biosignal
T2 sequence (P41145 whole entry): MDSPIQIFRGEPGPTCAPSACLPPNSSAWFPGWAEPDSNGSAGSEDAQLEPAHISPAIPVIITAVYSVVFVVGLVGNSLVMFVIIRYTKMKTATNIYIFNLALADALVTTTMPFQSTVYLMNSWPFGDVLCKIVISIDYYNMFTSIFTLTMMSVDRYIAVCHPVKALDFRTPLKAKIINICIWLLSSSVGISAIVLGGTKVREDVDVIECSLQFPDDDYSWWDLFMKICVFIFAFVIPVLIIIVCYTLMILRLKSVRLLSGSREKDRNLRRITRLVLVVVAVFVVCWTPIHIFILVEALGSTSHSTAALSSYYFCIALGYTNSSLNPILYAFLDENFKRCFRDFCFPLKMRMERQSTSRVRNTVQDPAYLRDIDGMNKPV
Outline: (§2)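 Percent inhibition of radioligand binding measured on recombinant human membranes: NK1 with [125I]-Substance P, KOP with [3H]-Diprenorphine. Incubation 1 h at room temperature, then harvest onto 0.3% PEI-soaked filters, cold Tris-HCl pH 7.4 washes and scintillation counting; non-specific binding from reference ligand wells.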

[3] = biological target: T3, Human Melanocortin (MC3) (Homo sapiens, UniProt P41968); assay: Radioligand binding, human melanocortin MC3 membranes, FlashPlate, [125I]-NDP-αMSH; conditions: compound at 10 μM; [125I]-NDP-αMSH, FlashPlate
T3 construct: purchased Perkin Elmer Biosignal
T3 sequence (P41968 whole entry): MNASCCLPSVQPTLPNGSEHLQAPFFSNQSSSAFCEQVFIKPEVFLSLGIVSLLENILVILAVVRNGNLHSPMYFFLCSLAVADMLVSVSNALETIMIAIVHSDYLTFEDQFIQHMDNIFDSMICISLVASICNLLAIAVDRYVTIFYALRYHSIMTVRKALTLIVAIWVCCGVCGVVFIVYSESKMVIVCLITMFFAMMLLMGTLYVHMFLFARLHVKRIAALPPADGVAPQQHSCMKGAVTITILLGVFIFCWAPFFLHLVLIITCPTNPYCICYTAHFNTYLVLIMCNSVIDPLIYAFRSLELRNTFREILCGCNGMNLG
Outline: as §1

[4] = biological target: T4, Human Melanocortin (MC4) (Homo sapiens, UniProt P32245); assay: Radioligand binding, human melanocortin MC4 membranes, FlashPlate, [125I]-NDP-αMSH; conditions: compound at 10 μM; [125I]-NDP-αMSH, FlashPlate
T4 construct: purchased Perkin Elmer Biosignal
T4 sequence (P32245 whole entry): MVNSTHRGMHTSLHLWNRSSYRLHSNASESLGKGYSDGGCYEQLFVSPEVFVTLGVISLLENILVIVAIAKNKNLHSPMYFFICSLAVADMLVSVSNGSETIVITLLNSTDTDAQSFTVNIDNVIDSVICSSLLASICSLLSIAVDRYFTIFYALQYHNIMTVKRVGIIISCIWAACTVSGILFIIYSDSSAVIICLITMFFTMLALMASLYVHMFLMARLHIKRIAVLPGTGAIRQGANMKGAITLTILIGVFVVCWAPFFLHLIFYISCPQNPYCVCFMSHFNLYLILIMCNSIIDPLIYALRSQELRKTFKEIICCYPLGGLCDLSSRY
Outline: as §1

[5] = biological target: T5, Human melanocortin (MC5) (Homo sapiens, UniProt P33032); assay: Radioligand binding, human melanocortin MC5 membranes, FlashPlate, [125I]-NDP-αMSH; conditions: compound at 10 μM; [125I]-NDP-αMSH, FlashPlate
T5 construct: purchased Perkin Elmer Biosignal
T5 sequence (P33032 whole entry): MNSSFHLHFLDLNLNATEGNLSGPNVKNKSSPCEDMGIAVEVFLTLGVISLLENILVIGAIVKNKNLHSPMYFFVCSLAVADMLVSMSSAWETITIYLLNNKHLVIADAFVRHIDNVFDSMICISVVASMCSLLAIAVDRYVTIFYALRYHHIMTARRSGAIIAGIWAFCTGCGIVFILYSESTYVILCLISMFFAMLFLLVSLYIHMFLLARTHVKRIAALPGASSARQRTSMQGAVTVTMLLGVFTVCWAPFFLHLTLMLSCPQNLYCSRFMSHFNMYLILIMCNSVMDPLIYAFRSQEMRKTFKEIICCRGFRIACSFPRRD
Outline: as §1

[6] = biological target: T6, Human melanin-concentrating hormone (MCH1) (Homo sapiens, UniProt Q99705); assay: Radioligand binding, human melanin-concentrating hormone MCH1 membranes, FlashPlate, [125I]-S36057; conditions: compound at 10 μM; [125I]-S36057, FlashPlate
T6 construct: purchased Perkin Elmer Biosignal
T6 sequence (Q99705 whole entry): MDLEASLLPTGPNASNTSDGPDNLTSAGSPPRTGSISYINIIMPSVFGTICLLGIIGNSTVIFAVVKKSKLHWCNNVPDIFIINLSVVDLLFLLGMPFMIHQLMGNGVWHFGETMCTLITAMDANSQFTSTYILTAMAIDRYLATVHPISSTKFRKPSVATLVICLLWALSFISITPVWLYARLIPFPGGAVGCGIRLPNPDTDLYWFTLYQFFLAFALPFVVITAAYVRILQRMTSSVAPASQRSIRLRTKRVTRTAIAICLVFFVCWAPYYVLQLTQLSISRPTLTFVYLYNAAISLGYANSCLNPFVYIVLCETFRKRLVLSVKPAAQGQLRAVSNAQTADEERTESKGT
Outline: as §1

[7] = biological target: T7, Human μ-opioid (MOP) (Homo sapiens, UniProt P35372); assay: Radioligand binding, human μ-opioid (MOP) membranes, FlashPlate, [3H]-Naloxone; conditions: compound at 10 μM; [3H]-Naloxone, FlashPlate
T7 construct: purchased Perkin Elmer Biosignal
T7 sequence (P35372 whole entry): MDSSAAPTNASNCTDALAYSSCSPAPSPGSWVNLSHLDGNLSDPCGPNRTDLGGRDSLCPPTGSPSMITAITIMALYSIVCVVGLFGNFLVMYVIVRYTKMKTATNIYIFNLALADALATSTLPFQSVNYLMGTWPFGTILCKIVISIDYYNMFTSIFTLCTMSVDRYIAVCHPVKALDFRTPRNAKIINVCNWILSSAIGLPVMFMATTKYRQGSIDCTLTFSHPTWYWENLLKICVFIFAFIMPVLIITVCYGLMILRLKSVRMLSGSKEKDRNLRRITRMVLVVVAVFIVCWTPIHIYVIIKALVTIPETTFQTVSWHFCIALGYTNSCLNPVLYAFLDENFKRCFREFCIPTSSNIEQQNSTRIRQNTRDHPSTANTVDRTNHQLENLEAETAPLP
Outline: as §1

[8] = biological target: T8, Human neurokinin (NK1) (Homo sapiens, UniProt P25103); assay: Radioligand binding, human neurokinin NK1 membranes, filtration, [125I]-Substance P; conditions: compound at 10 μM; [125I]-Substance P, filtration
T8 construct: purchased Perkin Elmer Biosignal
T8 sequence (P25103 whole entry): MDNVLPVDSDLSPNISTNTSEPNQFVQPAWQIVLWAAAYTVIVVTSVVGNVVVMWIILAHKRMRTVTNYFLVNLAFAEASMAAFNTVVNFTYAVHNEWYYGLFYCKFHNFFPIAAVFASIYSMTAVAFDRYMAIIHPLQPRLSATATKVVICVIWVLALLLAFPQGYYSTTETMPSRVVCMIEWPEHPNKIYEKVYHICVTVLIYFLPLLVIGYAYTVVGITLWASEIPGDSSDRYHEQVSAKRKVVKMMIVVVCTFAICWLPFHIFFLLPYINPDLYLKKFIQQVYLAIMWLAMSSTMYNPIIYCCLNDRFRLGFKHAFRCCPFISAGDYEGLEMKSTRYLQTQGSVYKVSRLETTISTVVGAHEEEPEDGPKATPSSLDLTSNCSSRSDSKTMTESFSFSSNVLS
Outline: as §2

[9] = biological target: T9, Human neuropeptide Y (NPY-Y1) (Homo sapiens, UniProt P25929); assay: Radioligand binding, human neuropeptide Y NPY-Y1 membranes, FlashPlate, [125I]-PYY; conditions: compound at 10 μM; [125I]-PYY, FlashPlate
T9 construct: purchased Perkin Elmer Biosignal
T9 sequence (P25929 1-384): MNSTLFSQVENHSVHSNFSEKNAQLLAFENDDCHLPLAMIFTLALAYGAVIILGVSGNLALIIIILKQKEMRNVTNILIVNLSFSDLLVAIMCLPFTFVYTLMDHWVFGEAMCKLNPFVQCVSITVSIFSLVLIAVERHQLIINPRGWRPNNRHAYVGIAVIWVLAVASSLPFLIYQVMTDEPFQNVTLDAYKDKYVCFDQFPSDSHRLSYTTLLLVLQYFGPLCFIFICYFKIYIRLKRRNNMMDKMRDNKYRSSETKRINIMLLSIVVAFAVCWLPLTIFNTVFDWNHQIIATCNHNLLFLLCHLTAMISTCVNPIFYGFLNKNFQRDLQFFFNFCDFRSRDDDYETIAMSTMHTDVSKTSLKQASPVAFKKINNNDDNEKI
Outline: as §1

[10] = biological target: T10, Human opioid (ORL1) (Homo sapiens, UniProt P41146); assay: Radioligand binding, human opioid ORL1 membranes, FlashPlate, [125I]-Nociceptin; conditions: compound at 10 μM; [125I]-Nociceptin, FlashPlate
T10 construct: purchased Perkin Elmer Biosignal
T10 sequence (P41146 whole entry): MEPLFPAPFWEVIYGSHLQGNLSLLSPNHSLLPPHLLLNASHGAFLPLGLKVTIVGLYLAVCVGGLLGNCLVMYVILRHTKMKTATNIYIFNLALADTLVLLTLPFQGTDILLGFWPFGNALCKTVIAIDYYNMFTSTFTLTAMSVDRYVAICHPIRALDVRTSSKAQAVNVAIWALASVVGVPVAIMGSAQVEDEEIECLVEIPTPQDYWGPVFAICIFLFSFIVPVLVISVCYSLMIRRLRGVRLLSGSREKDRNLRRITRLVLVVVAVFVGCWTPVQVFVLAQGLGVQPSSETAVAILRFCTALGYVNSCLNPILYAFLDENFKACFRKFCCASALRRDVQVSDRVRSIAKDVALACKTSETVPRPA
Outline: as §1

[11] = biological target: T11, Mouse urotensin (mUR2) (Mus musculus, UniProt Q8VIH9); assay: Radioligand binding, mouse urotensin mUR2 membranes, FlashPlate, [125I]-Urotensin II; conditions: compound at 10 μM; [125I]-Urotensin II, FlashPlate
T11 construct: purchased Perkin Elmer Biosignal
T11 sequence (Q8VIH9 1-385): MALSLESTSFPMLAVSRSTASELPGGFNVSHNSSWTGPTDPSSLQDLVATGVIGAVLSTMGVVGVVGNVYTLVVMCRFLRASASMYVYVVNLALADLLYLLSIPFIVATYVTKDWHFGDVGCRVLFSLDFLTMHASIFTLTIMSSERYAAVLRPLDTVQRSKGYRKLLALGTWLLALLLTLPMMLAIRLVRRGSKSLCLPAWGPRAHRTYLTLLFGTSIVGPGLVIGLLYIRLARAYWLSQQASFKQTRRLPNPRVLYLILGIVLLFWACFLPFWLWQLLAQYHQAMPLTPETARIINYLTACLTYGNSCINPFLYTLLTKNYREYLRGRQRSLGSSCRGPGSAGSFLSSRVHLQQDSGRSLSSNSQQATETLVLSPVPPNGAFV
Outline: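 Cloned mouse urotensin (mUR2) receptor membranes from Perkin Elmer Biosignal were immobilized in FlashPlate microplates using a proprietary coating. Each well got 19.5 μl buffer, then 0.5 μl of DMSO, reference ligand, or compound. Adding 5 μl of [125I]-Urotensin II, diluted to 5× final concentration in binding buffer, started binding. Plates were sealed with TopSeal-A and incubated 1 hour at room temperature in the dark. Wells were counted for 30 seconds each on a TopCount after a 60-second delay, and percentage inhibition was calculated.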

T1 sequence (P41143 whole entry): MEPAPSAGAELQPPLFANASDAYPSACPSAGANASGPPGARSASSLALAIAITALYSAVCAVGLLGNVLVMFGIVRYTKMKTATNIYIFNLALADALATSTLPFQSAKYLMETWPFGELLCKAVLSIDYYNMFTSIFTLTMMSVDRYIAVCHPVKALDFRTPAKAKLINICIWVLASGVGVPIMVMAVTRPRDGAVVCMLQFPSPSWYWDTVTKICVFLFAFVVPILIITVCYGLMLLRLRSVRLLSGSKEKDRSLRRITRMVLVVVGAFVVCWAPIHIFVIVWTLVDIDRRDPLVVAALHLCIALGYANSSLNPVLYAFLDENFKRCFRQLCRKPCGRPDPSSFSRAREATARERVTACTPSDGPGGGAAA

COCC1OC(OCc2ccc(Cl)cc2)C(NC(=O)CCCN)C(OCc2ccc(-c3ccccc3)cc2)C1O (stereo not drawn) [compound 207]
A1: inhibition of radioligand binding [1]: − (“−” indicates less than 50% inhibition at 10 μM)
A2: inhibition of radioligand binding [2]: − (“−” indicates less than 50% inhibition at 10 μM)
A3: inhibition of radioligand binding [3]: + (“+” indicates greater than 50% inhibition at 10 μM)
A4: inhibition of radioligand binding [4]: − (“−” indicates less than 50% inhibition at 10 μM)
A5: inhibition of radioligand binding [5]: + (“+” indicates greater than 50% inhibition at 10 μM)
A6: inhibition of radioligand binding [6]: − (“−” indicates less than 50% inhibition at 10 μM)
A7: inhibition of radioligand binding [7]: − (“−” indicates less than 50% inhibition at 10 μM)
A8: inhibition of radioligand binding [8]: + (“+” indicates greater than 50% inhibition at 10 μM)
A9: inhibition of radioligand binding [9]: − (“−” indicates less than 50% inhibition at 10 μM)
A10: inhibition of radioligand binding [10]: − (“−” indicates less than 50% inhibition at 10 μM)
A11: inhibition of radioligand binding [11]: − (“−” indicates less than 50% inhibition at 10 μM)

COCC1OC(OCc2ccc(Cl)cc2)C(NC(=O)CN)C(OCc2ccc3ccccc3c2)C1O (stereo not drawn) [compound 208]
A1: inhibition of radioligand binding [1]: − (“−” indicates less than 50% inhibition at 10 μM)
A2: inhibition of radioligand binding [2]: − (“−” indicates less than 50% inhibition at 10 μM)
A3: inhibition of radioligand binding [3]: − (“−” indicates less than 50% inhibition at 10 μM)
A4: inhibition of radioligand binding [4]: − (“−” indicates less than 50% inhibition at 10 μM)
A5: inhibition of radioligand binding [5]: + (“+” indicates greater than 50% inhibition at 10 μM)
A6: inhibition of radioligand binding [6]: − (“−” indicates less than 50% inhibition at 10 μM)
A7: inhibition of radioligand binding [7]: − (“−” indicates less than 50% inhibition at 10 μM)
A8: inhibition of radioligand binding [8]: + (“+” indicates greater than 50% inhibition at 10 μM)
A9: inhibition of radioligand binding [9]: − (“−” indicates less than 50% inhibition at 10 μM)
A10: inhibition of radioligand binding [10]: − (“−” indicates less than 50% inhibition at 10 μM)
A11: inhibition of radioligand binding [11]: − (“−” indicates less than 50% inhibition at 10 μM)

COCC1OC(OCc2ccc(Cl)cc2)C(NC(=O)CNC(=N)N)C(OCc2ccc3ccccc3c2)C1O (stereo not drawn) [compound 209]
A1: inhibition of radioligand binding [1]: − (“−” indicates less than 50% inhibition at 10 μM)
A2: inhibition of radioligand binding [2]: − (“−” indicates less than 50% inhibition at 10 μM)
A3: inhibition of radioligand binding [3]: + (“+” indicates greater than 50% inhibition at 10 μM)
A4: inhibition of radioligand binding [4]: + (“+” indicates greater than 50% inhibition at 10 μM)
A5: inhibition of radioligand binding [5]: + (“+” indicates greater than 50% inhibition at 10 μM)
A6: inhibition of radioligand binding [6]: − (“−” indicates less than 50% inhibition at 10 μM)
A7: inhibition of radioligand binding [7]: − (“−” indicates less than 50% inhibition at 10 μM)
A8: inhibition of radioligand binding [8]: + (“+” indicates greater than 50% inhibition at 10 μM)
A9: inhibition of radioligand binding [9]: − (“−” indicates less than 50% inhibition at 10 μM)
A10: inhibition of radioligand binding [10]: − (“−” indicates less than 50% inhibition at 10 μM)
A11: inhibition of radioligand binding [11]: − (“−” indicates less than 50% inhibition at 10 μM)

COCC1OC(OCc2ccc(Cl)cc2)C(NC(=O)CCN)C(OCc2ccc3ccccc3c2)C1O (stereo not drawn) [compound 210]
A1: inhibition of radioligand binding [1]: − (“−” indicates less than 50% inhibition at 10 μM)
A2: inhibition of radioligand binding [2]: − (“−” indicates less than 50% inhibition at 10 μM)
A3: inhibition of radioligand binding [3]: − (“−” indicates less than 50% inhibition at 10 μM)
A4: inhibition of radioligand binding [4]: + (“+” indicates greater than 50% inhibition at 10 μM)
A5: inhibition of radioligand binding [5]: + (“+” indicates greater than 50% inhibition at 10 μM)
A6: inhibition of radioligand binding [6]: − (“−” indicates less than 50% inhibition at 10 μM)
A7: inhibition of radioligand binding [7]: − (“−” indicates less than 50% inhibition at 10 μM)
A8: inhibition of radioligand binding [8]: + (“+” indicates greater than 50% inhibition at 10 μM)
A9: inhibition of radioligand binding [9]: − (“−” indicates less than 50% inhibition at 10 μM)
A10: inhibition of radioligand binding [10]: − (“−” indicates less than 50% inhibition at 10 μM)
A11: inhibition of radioligand binding [11]: − (“−” indicates less than 50% inhibition at 10 μM)

COCC1OC(OCc2ccc(Cl)cc2)C(NC(=O)CCNC(=N)N)C(OCc2ccc3ccccc3c2)C1O (stereo not drawn) [compound 211]
A1: inhibition of radioligand binding [1]: − (“−” indicates less than 50% inhibition at 10 μM)
A2: inhibition of radioligand binding [2]: + (“+” indicates greater than 50% inhibition at 10 μM)
A3: inhibition of radioligand binding [3]: − (“−” indicates less than 50% inhibition at 10 μM)
A4: inhibition of radioligand binding [4]: + (“+” indicates greater than 50% inhibition at 10 μM)
A5: inhibition of radioligand binding [5]: + (“+” indicates greater than 50% inhibition at 10 μM)
A6: inhibition of radioligand binding [6]: + (“+” indicates greater than 50% inhibition at 10 μM)
A7: inhibition of radioligand binding [7]: + (“+” indicates greater than 50% inhibition at 10 μM)
A8: inhibition of radioligand binding [8]: + (“+” indicates greater than 50% inhibition at 10 μM)
A9: inhibition of radioligand binding [9]: − (“−” indicates less than 50% inhibition at 10 μM)
A10: inhibition of radioligand binding [10]: − (“−” indicates less than 50% inhibition at 10 μM)
A11: inhibition of radioligand binding [11]: − (“−” indicates less than 50% inhibition at 10 μM)

COCC1OC(OCc2ccc(Cl)cc2)C(NC(=O)CCCN)C(OCc2ccc3ccccc3c2)C1O (stereo not drawn) [compound 212]
A1: inhibition of radioligand binding [1]: − (“−” indicates less than 50% inhibition at 10 μM)
A2: inhibition of radioligand binding [2]: − (“−” indicates less than 50% inhibition at 10 μM)
A3: inhibition of radioligand binding [3]: − (“−” indicates less than 50% inhibition at 10 μM)
A4: inhibition of radioligand binding [4]: − (“−” indicates less than 50% inhibition at 10 μM)
A5: inhibition of radioligand binding [5]: + (“+” indicates greater than 50% inhibition at 10 μM)
A6: inhibition of radioligand binding [6]: − (“−” indicates less than 50% inhibition at 10 μM)
A7: inhibition of radioligand binding [7]: − (“−” indicates less than 50% inhibition at 10 μM)
A8: inhibition of radioligand binding [8]: + (“+” indicates greater than 50% inhibition at 10 μM)
A9: inhibition of radioligand binding [9]: − (“−” indicates less than 50% inhibition at 10 μM)
A10: inhibition of radioligand binding [10]: − (“−” indicates less than 50% inhibition at 10 μM)
A11: inhibition of radioligand binding [11]: − (“−” indicates less than 50% inhibition at 10 μM)

Source: US20080009418A1, “Selective Inhibitors” (Alchemia LTD., priority 2004, published 2008)
